Data taken from article PMC8203924, “Development of a Potent Antimicrobial Peptide With Photodynamic Activity” (Frontiers in Microbiology, 2021).
Converted amounts (≈) assume the structure as drawn. Where two headings read alike, the source gives them in different places. Peptide text beside a SMILES is read from it. * marks the point of attachment. X1 = O=C(c1ccc2c3nc4nc(nc5[nH]c(nc6nc(nc([nH]3)c2c1)-c1ccccc1-6)c1ccccc51)-c1ccccc1-4)*

Tests used:
[1] = test system: E. coli (ATCC 8739); type: cell-based, Escherichia coli; settings: ATCC 8739, 20 h
Description: (§1) E. coli (ATCC 8739), S. aureus (ATCC 6538), or MRSA (ATCC 33591) were grown in LB culture medium at 37°C under aerobic conditions overnight (8–12 h) before use.
(§2) Bactericidal kinetics assay was also determined.

[2] = test system: MRSA (ATCC 33591); type: cell-based, methicillin-resistant S. aureus; settings: ATCC 33591, 20 h
Description: as §1, §2

[3] = test system: S. aureus (ATCC 6538); type: cell-based, Staphylococcus aureus; settings: ATCC 6538, 20 h
Description: as §1, §2

[4] = test system: S. aureus
Description: Kunming mice (4-week-old, 25 ± 2 g, purchased from Shanghai SLAC Laboratory Animal Co. Ltd., Shanghai, China) were maintained and handled in accordance with the recommendations of the Institutional Animal Care And Use Committee (IACUC). […] Each group had six mice. All groups of mice were allowed free access to water and food throughout the experimental process. In each group, excisional wounds (10 mm × 10 mm) was made on the dorsal surface of the mouse by disinfected scissors to a depth of 2.0 mm. The bottom of the wound was panniculus carnosus with no visible bleeding. An aliquot (50 μl) of mid-log phase S. aureus (10^8 CFU/ml) was then inoculated into each wound of mice. […] The area of the wounds and body weight of mice were measured each day.

[5] = test system: S. aureus; settings: 1-MIC, 12 h, OD600 hourly, 37°C
Description: (§6) Bactericidal kinetics assay was also determined. Different final concentrations (0, 1/8-, 1/4-, 1/2-, 1-MIC) of the peptides were added to the bioluminescent S. aureus suspension (10^3 CFU/ml). The bacteria were incubated at 37°C and 150 rpm. An aliquot of 100 μl of the suspension was taken out to measure the absorption at 600 nm on microplate reader once an hour for up to 12 h.

[6] = in vitro; settings: human, human embryonic lung fibroblast (HELF) cells
Description: The culture medium was used as control. The cells were washed with PBS, then were divided into two groups, and the light group was exposed to 12 J/cm^2 of 680 nm light illumination. After another 12-h incubation, the culture medium was refreshed and 3-(4,5-dimethylthiazol-2-yl)-2,5-diphenyltetrazolium bromide (MTT) was added. After 4-h incubation at 37°C, the absorbance at 490 nm was measured on a multi-mode microplate reader (BioTek Synergy 4). The inhibition rate of cell growth was calculated by the following equation:
Cell viability%=Mean absorbance value of treatment group/Mean absorbance value of control×100%

[7] = mouse, in vivo, iv
Description: The blood of mice was diluted 10 times with DMF, immediately after collection, and then centrifuged to get supernatant for further determination. The supernatant was measured by fluorescence spectrophotometer F-4600 (HITACHI, Tokyo, Japan). The fluorescence intensity was recorded. The excitation and emission wavelengths were set at 610 and 680 nm. […] The plasma half-life (t1/2) can be calculated by the following formula:
Here, k represents the slope of fluorescence intensity-log (concentration) regression equation.

[8] = test system: E. coli; settings: 1-MIC, 12 h, OD600 hourly, 37°C
Description: as §6

[9] = test system: MRSA (ATCC 33591); experiment: Photo-assisted antimicrobial activity by colony counting method; type: cell-based, methicillin-resistant S. aureus; settings: 2 μM, 6 min illumination, 12 J/cm^2, 33.33 mW/cm^2, colony counting, start 10^6 CFU/ml
Description: as §1
(§3) Photo-assisted antimicrobial activity assays of the compound peptides against ATCC standard strains were carried out by colony counting method. The agar plates with only bacterial suspension were used as negative control. The peptide and bacterial suspension were incubated together in 96-well microplates first. Under the same conditions, for comparison, the other groups were set without light. After incubation for 40 min at room temperature, aliquots of 100 μl were taken out of the solutions and placed on agar plates at serial dilutions, then incubated at 37°C for 18–24 h. Numbers of colonies were counted, and the antimicrobial rate (R) was calculated: R = (B-A)/B × 100%. Here, A is the bacterial colony number on the agar plates containing various concentrations of the peptides, and B is the colony number for negative control.

[10] = test system: E. coli (ATCC 8739); settings: 2 μM
Description: as §1, §3

[11] = test system: S. aureus (ATCC 6538); settings: 2 μM
Description: as §1, §3

[12] = test system: bioluminescent S. aureus; type: cell-based, Staphylococcus aureus; settings: for IC50: bioluminescent S. aureus, 680 nm LED 6 min, 12 J/cm^2, 33.33 mW/cm^2, after 10 min incubation, triplicate, mean ± SD, read-out: IC50 against S. aureus upon illumination
Description: (§4) Bioluminescent bacteria were grown in Luria-Bertani (LB) culture medium at 37°C under aerobic conditions overnight 8–12 diluted 100 times to 10^6 colony-forming units (CFU)/ml in phosphate buffered saline (PBS) before incubating with the peptides. The peptide or new compounds were first dissolved in PBST (PBS with 0.05% Tween 20) to prepare 1-mM stock solutions, and the solutions were then further diluted up to 100 μM with PBST. The bacterial suspensions were then incubated in 96-well plates with the compound peptides. The luminescence was monitored for 1 h to measure the bacterial viability. The percentage of survived bacteria was determined from the luminescence intensities of the treated group divided by the luminescence signal of the controls.
(§5) For photo-assisted antimicrobial activity measurements against bioluminescent bacteria, we used a procedure similar to as above, but with illumination using LM-LED light (680 nm) for 6 min (light dose of 12 J/cm^2, 33.33 mW/cm^2) after 10 min incubation of the bacterial suspensions and the compound peptides.

[13] = mouse, in vivo, iv; remark: listed apart in the source
Description: The mice were sacrificed at 2, 4, 8, 12, 24, 36, 48, and 72 h post-injection, and their primary organs (liver, kidneys, heart, spleen, lung, stomach, intestines) or muscles were collected postmortem. Meanwhile, their blood was collected through enucleation of eyeballs. These samples were then washed with saline and imaged on the three-dimension FMT 2500TM LX (PerkinElmer, Waltham, MA, United States) using the same acquisition settings as the in vivo imaging to quantitate the peptide average concentrations in the samples.

[14] = test system: bioluminescent S. aureus; type: cell-based, Staphylococcus aureus; settings: without light; for higher efficacy than compound 1 or 2: on both bacterial strains (bioluminescent S. aureus and E. coli); for IC50: bioluminescent S. aureus, 10^6 CFU/ml in PBS, peptides in PBST, luminescence monitored 1 h, triplicate, mean ± SD, read-out: IC50 against S. aureus
Description: The side chain-protected peptides G3(RW)3, G3(RW)3K5, and G3K5(RW)3 on Wang resin were obtained commercially (GL Biochem Ltd., Shanghai). Beta-carboxy phthalocyanine zinc was developed by us by a method previously reported ([Chen et al., 2006]). Beta-carboxy phthalocyanine (β-PcCOOH) was purified on a silica column with N,N-dimethylformamide (DMF):acetone (3:1) as the second band. All the chemical reagents were analytical grade and used without further purification. Distilled water was used throughout the experiments. E. coli (ATCC 8739), S. aureus (ATCC 6538), and MRSA (ATCC 33591) were acquired from ATCC. Bioluminescent strains of E. coli DH5α were constructed by transformation of plasmid pAKlux2.1, which contained a complete bacterial luciferase operon as described ([Ullah et al., 2018]; [Chen et al., 2019]), and S. aureus Xen29 (NCTC8532) containing a stable copy of the modified Photorhabdus luminescens luxABCDE operon was purchased from Shanghai Biofeng Company.
as §4

[15] = test system: bioluminescent E. coli; type: cell-based, Escherichia coli; settings: 10^6 CFU/ml in PBS, peptides in PBST, luminescence monitored 1 h, without light, triplicate, mean ± SD, read-out: IC50 against E. coli
Description: The side chain-protected peptides G3(RW)3, G3(RW)3K5, and G3K5(RW)3 on Wang resin were obtained commercially (GL Biochem Ltd., Shanghai). Beta-carboxy phthalocyanine zinc was developed by us by a method previously reported ([Chen et al., 2006]). Beta-carboxy phthalocyanine (β-PcCOOH) was purified on a silica column with N,N-dimethylformamide (DMF):acetone (3:1) as the second band. All the chemical reagents were analytical grade and used without further purification. Distilled water was used throughout the experiments. E. coli (ATCC 8739), S. aureus (ATCC 6538), and MRSA (ATCC 33591) were acquired from ATCC. […]
Bioluminescent bacteria were grown in Luria-Bertani (LB) culture medium at 37°C under aerobic conditions overnight 8–12 diluted 100 times to 10^6 colony-forming units (CFU)/ml in phosphate buffered saline (PBS) before incubating with the peptides. […] The luminescence was monitored for 1 h to measure the bacterial viability. The percentage of survived bacteria was determined from the luminescence intensities of the treated group divided by the luminescence signal of the controls.

[16] = test system: bioluminescent E. coli; experiment: Photo-assisted antimicrobial activity against bioluminescent bacteria; type: cell-based, Escherichia coli; settings: 680 nm LED 6 min, 12 J/cm^2, 33.33 mW/cm^2, after 10 min incubation, triplicate, mean ± SD, read-out: IC50 against E. coli upon illumination
Description: as §4, §5

[17] = 36-s exposure or 0.60 J/cm^2, 33.33 mW/cm^2
[18] = 6 min illumination, 12 J/cm^2, 33.33 mW/cm^2, colony counting
[19] = 6 min illumination, 12 J/cm^2, 33.33 mW/cm^2, colony counting, start 10^6 CFU/ml

| Molecule | MIC against E. coli [1] [µM] | MIC against MRSA [2] [µM] | MIC against S. aureus [3] [µM] | higher efficacy than compound 1 or 2 [14] | IC50 [15] [µM] | IC50 [12] [µM] | IC50 [16] [µM] | IC50 [14] [µM] | other results |
| --- | --- | --- | --- | --- | --- | --- | --- | --- | --- |
| N=C(N)NCCC[C@H](NC(=O)CNC(=O)CNC(=O)CNC(=O)c1ccc2c3nc4nc(nc5[nH]c(nc6nc(nc([nH]3)c2c1)-c1ccccc1-6)c1ccccc51)-c1ccccc1-4)C(=O)N[C@@H](Cc1c[nH]c2ccccc12)C(=O)N[C@@H](CCCNC(=N)N)C(=O)N[C@@H](Cc1c[nH]c2ccccc12)C(=O)N[C@@H](CCCNC(=N)N)C(=O)N[C@@H](Cc1c[nH]c2ccccc12)C(=O)O [Compound 3, PcG3(RW)3] (X1-GGGRWRWRW-OH) | 48.0 (≈ 84.3 µg/mL) | 24.0 (≈ 42.2 µg/mL) | 12.0 (≈ 21.1 µg/mL) | – | – | – | – | – | – |
| N=C(N)NCCC[C@H](NC(=O)[C@H](Cc1c[nH]c2ccccc12)NC(=O)[C@H](CCCNC(=N)N)NC(=O)[C@H](Cc1c[nH]c2ccccc12)NC(=O)[C@H](CCCNC(=N)N)NC(=O)[C@H](CCCCN)NC(=O)[C@H](CCCCN)NC(=O)[C@H](CCCCN)NC(=O)[C@H](CCCCN)NC(=O)[C@H](CCCCN)NC(=O)CNC(=O)CNC(=O)CNC(=O)c1ccc2c3nc4nc(nc5[nH]c(nc6nc(nc([nH]3)c2c1)-c1ccccc1-6)c1ccccc51)-c1ccccc1-4)C(=O)N[C@@H](Cc1c[nH]c2ccccc12)C(=O)O [Compound 4, PcG3K5(RW)3] (X1-GGGKKKKKRWRWRW-OH) | 16.1 (≈ 38.6 µg/mL) | 16.1 (≈ 38.6 µg/mL) | 8.0 (≈ 19.2 µg/mL) | 2–4 times | – | – | – | – | wound recovery with one-time illumination ([4]; 20 μM local, one-time 680-nm illumination 12.0 J/cm^2, 33.33 mW/cm^2, vs without illumination): better wound recovery than the ones without illumination at the first 3 days after surgery; wound healing of S. aureus infected excisional wounds ([4]; 50 μl of 20 μM local administration, without light, n = 6 per group): promoted wound healing and prevented or alleviated the infection; bacterial proliferation of S. aureus at MIC [5]: completely stopped; viability at 24 h [6]: > 90%; plasma half-life (t1/2) [7]: 11.09 h; bacterial proliferation of E. coli at MIC [8]: completely stopped; log reduction of MRSA [9]: up to 5 log; elimination of E. coli at low dose of light [10, 17]: about 80%; reduction of E. coli [10, 18]: 99.9%; log reduction of E. coli [10, 19]: 3 log; elimination of S. aureus at low dose of light [11, 17]: ~95%; reduction of S. aureus [11, 18]: ≤ 99.999%; log reduction of S. aureus [11, 19]: up to 5 log; increase of inhibitory efficacy upon illumination ([12]; red light / LED illumination vs no light, S. aureus and E. coli): ~ 140 fold; time to be cleared out of organs [13]: ≤ 72 h |
| N=C(N)NCCC[C@H](NC(=O)CNC(=O)CNC(=O)CNC(=O)c1ccc2c3nc4nc(nc5[nH]c(nc6nc(nc([nH]3)c2c1)-c1ccccc1-6)c1ccccc51)-c1ccccc1-4)C(=O)N[C@@H](Cc1c[nH]c2ccccc12)C(=O)N[C@@H](CCCNC(=N)N)C(=O)N[C@@H](Cc1c[nH]c2ccccc12)C(=O)N[C@@H](CCCNC(=N)N)C(=O)N[C@@H](Cc1c[nH]c2ccccc12)C(=O)N[C@@H](CCCCN)C(=O)N[C@@H](CCCCN)C(=O)N[C@@H](CCCCN)C(=O)N[C@@H](CCCCN)C(=O)N[C@@H](CCCCN)C(=O)O [Compound 5, PcG3(RW)3K5] (X1-GGGRWRWRWKKKKK-OH) | 16.1 (≈ 38.6 µg/mL) | 16.1 (≈ 38.6 µg/mL) | 16.1 (≈ 38.6 µg/mL) | 2–4 times | – | – | – | – | – |
| H-GGGKKKKKRWRWRW-OH [Compound 1, G3K5(RW)3] | >215.6 | 107.8 | 107.8 | – | 61.8 ± 4.3 | 44.6 ± 4.72 | 59.2 ± 1.97 | 45.6 ± 2.9 | – |
| H-GGGRWRWRWKKKKK-OH [Compound 2, G3(RW)3K5] | >215.6 | 107.8 | 107.8 | – | 135 ± 25.3 | 71.6 ± 2.82 | 129 ± 30.3 | 68 ± 3.2 | – |
